# Measurements reported in patent US20170136008A1, “OXABICYCLOHEPTANES AND OXABICYCLOHEPTENES FOR THE TREATMENT OF OVARIAN CANCER” (priority 2014, published 2017).
# Columns and labels:
# [1] = system: SKOV-3 ovarian cancer cells; assay: MTT cytotoxicity assay, SKOV-3; type: cell-based, human
# SKOV-3 cells = assay: Cell-cycle analysis (FACS), SKOV-3; type: cell-based, human
# Experimental: For cell-cycle analysis, cells were washed with PBS and fixed overnight in ice-cold 70% ethanol and stored at 4° C. Cells were then centrifuged and resuspended in 100 U RNAse (Sigma-Aldrich), and incubated at 37° C. for 20 min. Propidiumidodide solution (Invitrogen, 500 μL, 50 μg/mL in DPBS) was added to each tube and incubated in the dark at 4° C. overnight. Flow cytometry analysis was performed with CellQuestPro and data analysis was completed with ModFit LT. All data is in triplicate and presented as a percent mean±SD.
# [2] = system: SKOV-3/f-Luc intraperitoneal xenografts; assay: In vivo intraperitoneal ovarian cancer model; parameters: species or system mouse
# Experimental: Five- to seven-week-old female nude athymic mice (nu/nu) were obtained from NCI (Frederick, Md.), maintained in accredited animal facilities and used as stipulated by the U.S. Public Health Service Policy on Humane Care and Use of Laboratory Animals, in accordance with institutional reviews (http://oacu.odnih.gov). 10^6 SKOV-3/f-Luc cells were suspended in 100 μL PBS and injected into the intraperitoneal (i.p.) cavity. […] Following tumor inoculation, mice were dosed on days 4, 6, 8, 10, 12 and 14. Dose and treatment schedule were established based on the activity of each agent reported in previous studies (Wei, D. et al. 2013; Lu, J. et al. 2009; Mabuchi, S. et al. 2007). […] Tumor growth was measured twice a week via bioluminescence imaging (BLI) as previously described (Bakhsheshian, J. et al. 2013). D-Luciferin (150 mg/kg, 3 mg/100 μL PBS) was administered via I.P. injection. Relative intensity of the BLI signal for each mouse was calculated by dividing the total luminescence for each session by the total luminescence measured on day 1 of treatment. Mice were continuously observed until indicated euthanasia endpoints (e.g. significant weight loss, ascites). Toxicity of the treatment regimens was assessed by the degree of weight loss and the overall health status was continuously monitored by a veterinarian on staff. […] After 4 h, mice were euthanized and tumors were dissected from the intraperitoneal cavity, snap-frozen in liquid nitrogen, and lysed as described above.
# Tumors were established in nude athymic female mice via i.p. injection of SKOV-3 cells transfected with firefly luciferase. […] Following the final treatment, mice were observed until pre-determined health concerns necessitated euthanization. Dose and treatment schedules were determined from biologic profiles of each agent determined in previous studies (Wei, D. et al. 2013; Lu, J. et al. 2009; Mabuchi, S. et al. 2009) and disease progression was monitored by BLI.
# [3] = system: BRCA1, Wee1, Chk1, γH2AX phosphorylation in SKOV-3 tumors; assay: Ex-vivo western blot of intraperitoneal tumors; type: in vivo, mouse; settings: LB100 alone 1.5 mg/kg, 4 h
# Experimental: Whole cell and homogenized tumor tissues were lysed in NP-40 lysis buffer [50 mM Tris/HCl, pH 7.4, 150 mM NaCl and 1% Nonidet P40, supplemented with Complete Protrase Inhibitor Cocktail tablets and PhosStop phosphatase inhibitors (Roche, Indianapolis, Ind.)] and prepared as previously described (Madigan, J. P. et al. 2009). Protein (40 μg) was resolved on SDS/PAGE (12% or 15% gels) and transferred onto Immobilon PVDF membrane. The membrane was then blocked for 1 hour at room temperature in 5% (w/v) non-fat milk in TBS-Tween and probed overnight with primary antibodies. […]
# Five- to seven-week-old female nude athymic mice (nu/nu) were obtained from NCI (Frederick, Md.), maintained in accredited animal facilities and used as stipulated by the U.S. Public Health Service Policy on Humane Care and Use of Laboratory Animals, in accordance with institutional reviews (http://oacu.odnih.gov). […] Tumor growth was measured twice a week via bioluminescence imaging (BLI) as previously described (Bakhsheshian, J. et al. 2013). […] Relative intensity of the BLI signal for each mouse was calculated by dividing the total luminescence for each session by the total luminescence measured on day 1 of treatment. […] Toxicity of the treatment regimens was assessed by the degree of weight loss and the overall health status was continuously monitored by a veterinarian on staff. […]
smiles,measurement,setting,value
CN1CCN(C(=O)C2C(C(=O)O)[C@H]3CC[C@@H]2O3)CC1 (stereo partly drawn) [LB100],IC50,"[1]; Homo sapiens, SK-OV-3, SK-OV3, MTT, read-out: IC50, viability of ovarian cancer cell line",10.1 ± 1.6 µM
same,fold less sensitive compared to the other ovarian lines,[1]; SKOV-3 vs other ovarian lines,2 fold
same,G1 (%),"SKOV-3 cells; 24 h, LB100 5 μM",51.4 ± 1.5%
same,G2/M (%),"SKOV-3 cells; 24 h, LB100 5 μM",28.9 ± 1.2%
same,S (%),"SKOV-3 cells; 24 h, LB100 5 μM",19.7 ± 0.8%
same,G1 (%),"SKOV-3 cells; 48 h, LB100 2 μM",49.8 ± 0.5%
same,G2/M (%),"SKOV-3 cells; 48 h, LB100 2 μM",25.1±0.8%
same,S (%),"SKOV-3 cells; 48 h, LB100 2 μM",25.1 ± 0.3%
same,G1 (%),"SKOV-3 cells; 48 h, LB100 5 μM",47.2 ± 1.9%
same,G2/M (%),"SKOV-3 cells; 48 h, LB100 5 μM",25.1 ± 0.8%
same,S (%),"SKOV-3 cells; 48 h, LB100 5 μM",30.2 ± 3.1%
same,G1 (%),"SKOV-3 cells; 48 h, LB100 10 μM",36.8 ± 1.8%
same,G2/M (%),"SKOV-3 cells; 48 h, LB100 10 μM",32.1±1.6%
same,S (%),"SKOV-3 cells; 48 h, LB100 10 μM",31.1 ± 0.8%
same,G1 (%),"SKOV-3 cells; 48 h, LB100 15 μM",42.3 ± 1.6%
same,G2/M (%),"SKOV-3 cells; 48 h, LB100 15 μM",33.9±1.4%
same,S (%),"SKOV-3 cells; 48 h, LB100 15 μM",23.8 ± 0.2%
same,"day by which massive ascites developed, necessitating euthanasia",[2]; LB100 alone 1.5 mg/kg i.p.,≤ 25 days
same,tumor growth as assessed by BLI,[2]; LB100 alone 1.5 mg/kg i.p.,did not alter tumor growth
same,relative intensity of BLI signal (vs day 1 of treatment),"[2]; day 25, each drug 1.5 mg/kg i.p., 6 doses every other day, LB100 1 h before cisplatin in combination",12.4±6.7
same,"phosphorylation of BRCA1, Wee1, Chk1, γH2AX",[3],induced hyperphosphorylation
